According to patent US6576271B2, “Method for inhibiting inflammation using bioflavonoids” (Board of Trustees operating Michigan State University, priority 1998, dated 2003):
Where two headings read alike, the source gives them in different places. One block for each molecule: values may come before it.

Experiments:
PGHS-1 (COX-1) = target: T1, PGHS-1 (COX-1) (Ovis aries, UniProt P05979); experiment: COX-1 inhibition by flavonoids and isoflavonoids, O2 uptake (Example 5); format: biochemical; conditions: for PGHS-1 (COX-1) inhibition: at 1000 μM concentrations; for COX-1 inhibitory activity among isoflavonoids: COX-1/COX-2 stated together; for COX-1 inhibitory activity: FIG. 9, 200 μm concentrations
T1 construct: purchased Oxford Biomedical Research (Oxford, Mich., USA)
T1 sequence (P05979 25-600): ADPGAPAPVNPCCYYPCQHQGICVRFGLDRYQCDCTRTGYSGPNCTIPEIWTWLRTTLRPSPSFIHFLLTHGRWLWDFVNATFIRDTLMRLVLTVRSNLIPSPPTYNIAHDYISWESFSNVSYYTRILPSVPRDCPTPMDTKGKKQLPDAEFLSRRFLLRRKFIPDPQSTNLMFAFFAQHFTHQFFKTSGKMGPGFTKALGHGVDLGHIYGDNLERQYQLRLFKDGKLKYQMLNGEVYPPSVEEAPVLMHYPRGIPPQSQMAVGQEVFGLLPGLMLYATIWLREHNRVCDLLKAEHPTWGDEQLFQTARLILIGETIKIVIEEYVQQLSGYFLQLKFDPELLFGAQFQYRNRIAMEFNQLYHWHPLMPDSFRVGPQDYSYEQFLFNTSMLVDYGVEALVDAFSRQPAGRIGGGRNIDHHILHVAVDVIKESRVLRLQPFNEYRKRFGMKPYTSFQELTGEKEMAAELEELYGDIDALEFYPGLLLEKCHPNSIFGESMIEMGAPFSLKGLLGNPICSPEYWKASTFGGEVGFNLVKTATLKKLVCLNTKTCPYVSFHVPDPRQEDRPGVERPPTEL
Source text: (§1) This is an antiinflammatory assay for cyclooxygenase inhibition activity of flavonoids and isoflavonoids. Arachidonic acid and microsomal suspensions of PGHS-1 (COX-1) and COX-2 (PGHS-2) were purchased from Oxford Biomedical Research (Oxford, Mich., USA). Genistein, genistin, naringenin, quercetin, 5,8,4′-trihydroxy-6,7-dimethoxyflavone, kaempferol-3-rutinoside and 3′-methoxy kaempferol 3-rutinoside were purified from BALATON tart cherry by HPLC and were identified by ^1H- and ^13C NMR spectral data. Daidzein and formononetin were purchased from Research Plus, Inc. (Bayonne, N.J., USA). […] Luteolin was purchased from Adams Chemical Co. (Round Lake, Ill., USA).
For measuring the COX activity, flavonoids or isoflavonoids were dissolved in DMSO to yield 40 mM stock solution and was further diluted to the desired concentration according to the COX-1/COX-2 inhibitory activity of each compound assayed.
Anti-inflammatory assay: COX activities were measured using microsomal suspensions of PGHS-1 and PGHS-2. Microsomal membranes (5 mg protein/mL in 0.1 M Tris HCl, pH 7.4) were prepared and assayed on the same day. COX-1 and COX-2 assay was performed at 37° C. controlled by a circulation bath (Model-1166, VWR Scientific Products, Chicago, Ill.) by monitoring the rate of O2 uptake using a 5357 Oxygen electrode (INSTECH Laboratory, Plymouth Meeting, Pa.) (Meade, E. A., et al., J. Biol. Chem. 268 6610-6614 (1993)).
Each assay mixture contained 600 μL of 0.1 M Tris-HCl, pH 8.0, 1 mM phenol, 17 μg hemoglobin and 10 μM arachidonate and were mixed in a microchamber (INSTECH Laboratory, Plymouth Meeting, Pa., USA). […] Reactions were initiated by adding […] of microsomal protein (5 μL). Instantaneous inhibition was determined by measuring the cyclooxygenase activity initiated by adding microsomal suspensions of PGHS-1 or PGHS-2 in the assay mixtures containing 10 μM arachidonate and various concentrations of test compounds. […] The kinetics of the enzyme activity was monitored by Biological Oxygen Monitor (YSI model 5300, Yellow Springs Instrument CO., Inc., Yellow Springs, Ohio) and collected in Quicklog Data Acquisition and Control computer software (Strawberry Tree Inc., Sunnyvale, Calif., USA).
The COX-1/COX-2 activity of BALATON cherry bioflavonoids was determined by monitoring the O2 uptake. Reactions were initiated by adding PGHS enzyme preparation. One unit of cyclooxygenase represents oxygenation of 1 nmol of arachidonate/min under the standard assay condition by the COX enzyme. This assay was a modification of the assay reported by DeWitt et al. (Dewitt D. L., et al., J. Biol. Chem. 265 5192-5198 (1990)). […] This methodology can also be used for COX-2 assay as well using COX-2 enzyme. […] COX-1 inhibitory activities of flavonoids, kaempferol, quercetin, luteolin, quercetin 3-rhamnoside, 5,8,4′-trihydroxy-6,7-dimethoxyflavone were compared. Kaempferol 3-rutinoside, 3′-methoxy kaempferol 3-rutinoside and naringenin (FIG. 9), and five isoflavonoids, genistein, genistin, daidzein, formononetin and biochanin A (FIG. 8).
COX-1/COX-2 inhibitory activities of each compound at different concentrations was calculated by comparing the tangent of O2 uptake curves of test compounds with that of blank control. Each assay was repeated 3 times and the IC50 values (50 inhibitory concentrations) were calculated by linear regression analysis.

cyclooxygenase = conditions: cited from earlier work; for COX inhibition: literature reports
COX-2 (PGHS-2) = target: T2, COX-2 (PGHS-2) (Homo sapiens, UniProt P35354); experiment: COX-2 inhibition by flavonoids and isoflavonoids, O2 uptake (Example 5); format: biochemical; conditions: COX-1/COX-2 stated together
T2 construct: purchased Oxford Biomedical Research (Oxford, Mich., USA)
T2 sequence (P35354 18-604): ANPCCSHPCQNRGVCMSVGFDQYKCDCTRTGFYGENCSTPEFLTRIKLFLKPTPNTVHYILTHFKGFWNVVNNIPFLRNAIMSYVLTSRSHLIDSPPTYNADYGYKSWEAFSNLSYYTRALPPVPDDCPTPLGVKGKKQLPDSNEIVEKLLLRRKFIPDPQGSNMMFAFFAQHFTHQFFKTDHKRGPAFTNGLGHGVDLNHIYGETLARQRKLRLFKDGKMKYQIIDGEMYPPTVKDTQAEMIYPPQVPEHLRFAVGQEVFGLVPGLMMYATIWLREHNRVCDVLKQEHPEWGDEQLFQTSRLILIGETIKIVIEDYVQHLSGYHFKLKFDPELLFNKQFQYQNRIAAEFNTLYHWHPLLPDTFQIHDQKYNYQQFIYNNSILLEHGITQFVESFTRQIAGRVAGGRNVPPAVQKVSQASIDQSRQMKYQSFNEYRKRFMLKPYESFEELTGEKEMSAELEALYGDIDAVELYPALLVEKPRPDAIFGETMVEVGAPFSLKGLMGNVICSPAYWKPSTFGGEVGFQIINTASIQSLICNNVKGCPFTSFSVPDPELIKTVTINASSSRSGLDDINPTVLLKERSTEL
Source text: as §1, with “Ill., USA). […]” for “Ill., USA).”
Anti-inflammatory assay: COX activities were measured using microsomal suspensions of PGHS-1 and PGHS-2. […]
Each assay mixture contained 600 μL of 0.1 M Tris-HCl, pH 8.0, 1 mM phenol, 17 μg hemoglobin and 10 μM arachidonate and were mixed in a microchamber (INSTECH Laboratory, Plymouth Meeting, Pa., USA). […] Instantaneous inhibition was determined by measuring the cyclooxygenase activity initiated by adding microsomal suspensions of PGHS-1 or PGHS-2 in the assay mixtures containing 10 μM arachidonate and various concentrations of test compounds. […]
The COX-1/COX-2 activity of BALATON cherry bioflavonoids was determined by monitoring the O2 uptake. […]

[1] = Tsuda et al. 1994; cited from earlier work
[2] = Sanchez De Medina et al. 1996; cited from earlier work
PGHS-1 enzyme = target: T3, PGHS-1 enzyme (Ovis aries, UniProt P05979); experiment: Cyclooxygenase activity of PGHS-1, initial rate of O2 uptake (Example 4); format: biochemical, ram
T3 construct: a microsomal fraction of ram seminal vesicles containing PGHS-1 enzyme; tissue Oxford Biomedical Research (Oxford, Mich.); host or cells: ram seminal vesicles (microsomal fraction)
T3 sequence (P05979 25-600): T1 sequence (P05979 25-600)

[3] = mean of triplicate, FIGS. 10 and 11, read-out: IC50 for inhibition of PGHS-1 enzyme (COX-1)

PGHS-1 (COX-1) inhibition (PGHS-1 (COX-1)): not active
Compound: COc1cc(-c2oc3cc(O)cc(O)c3c(=O)c2O[C@@H]2O[C@H](CO[C@@H]3O[C@@H](C)[C@H](O)[C@@H](O)[C@H]3O)[C@@H](O)[C@H](O)[C@H]2O)ccc1O [3′-methoxy kaempferol 3-rutinoside]

IC50 (PGHS-1 (COX-1); [3]): 300 µM
Compound: O=c1cc(-c2ccc(O)c(O)c2)oc2cc(O)cc(O)c12 [luteolin]

COX-1 inhibitory activity among isoflavonoids (PGHS-1 (COX-1)): dramatically decreased
COX-2 inhibitory activity among isoflavonoids (COX-2 (PGHS-2)): dramatically decreased
Compound: O=c1c(-c2ccc(O)cc2)coc2cc(O[C@@H]3O[C@H](CO)[C@@H](O)[C@H](O)[C@H]3O)cc(O)c12 [genistin]

PGHS-1 (COX-1) inhibition (PGHS-1 (COX-1)): not active
Compound: C[C@H]1O[C@H](OC[C@H]2O[C@@H](Oc3c(-c4ccc(O)cc4)oc4cc(O)cc(O)c4c3=O)[C@H](O)[C@@H](O)[C@@H]2O)[C@@H](O)[C@@H](O)[C@@H]1O [Kaempferol 3-rutinoside]

COX-1 inhibitory activity (PGHS-1 (COX-1)): little or no COX-1 inhibition
PGHS-1 (COX-1) inhibition (PGHS-1 (COX-1)): not active
Compound: COc1c(OC)c(O)c2c(=O)cc(-c3ccc(O)cc3)oc2c1O [5,8,4′-trihydroxy-6,7-dimethoxyflavone]

IC50 (PGHS-1 enzyme; inhibition of cyclooxygenase activity, FIG. 7): 90 µM
Compound: Oc1cc(O)c2cc(O)c(-c3ccc(O)c(O)c3)[o+]c2c1 [cyanidin]

IC50 (PGHS-1 (COX-1); [3]): 350 µM
Compound: COc1ccc(-c2coc3cc(O)cc(O)c3c2=O)cc1 [biochanin A]

IC50 (PGHS-1 (COX-1)): 80 µM
COX-1 inhibitory activity among isoflavonoids (PGHS-1 (COX-1)): highest COX-1/COX-2 inhibitory activity
COX-2 inhibitory activity among isoflavonoids (COX-2 (PGHS-2)): highest COX-1/COX-2 inhibitory activity
Compound: O=c1c(-c2ccc(O)cc2)coc2cc(O)cc(O)c12 [genistein]

effect on activity of enzyme at higher concentrations (PGHS-1 enzyme; higher concentrations than 300-nM, enzyme (PGHS-1/PGHS-2) not specified): increased the activity of enzyme
Compound: C[C@@H]1O[C@@H](OC[C@H]2O[C@@H](Oc3cc4c(O)cc(O)cc4[o+]c3-c3ccc(O)c(O)c3)[C@H](O[C@@H]3O[C@H](CO)[C@@H](O)[C@H](O)[C@H]3O)[C@@H](O)[C@@H]2O)[C@H](O)[C@H](O)[C@H]1O [anthocyanin 1]

COX-1 inhibitory activity (PGHS-1 (COX-1)): highest COX-1 inhibition
IC50 (PGHS-1 (COX-1); [3]): 180 µM
Compound: O=c1c(O)c(-c2ccc(O)cc2)oc2cc(O)cc(O)c12 [kaempferol]

COX-1 inhibitory activity (PGHS-1 (COX-1)): dramatically decreased
Compound: O=C1C[C@@H](c2ccc(O)cc2)Oc2cc(O)cc(O)c21 [naringenin]

Further lines, the molecule ahead of its results:

Compound: CC(C)=CCc1c(-c2ccc(O)cc2O)oc2c3c(cc(O)c2c1=O)OC(C)(C)C=C3 [morusin]
COX inhibition (cyclooxygenase): active

Compound: OC[C@H]1O[C@@H](Oc2cc3c(O)cc(O)cc3[o+]c2-c2ccc(O)c(O)c2)[C@H](O)[C@@H](O)[C@@H]1O [cyanidin-3-glucoside]
antioxidant activities [1]: strong antioxidant activities

Compound: C[C@@H]1O[C@@H](Oc2c(-c3ccc(O)c(O)c3)oc3cc(O)cc(O)c3c2=O)[C@H](O)[C@H](O)[C@H]1O [quercetin 3-rhamnoside]
COX-1 inhibitory activity (PGHS-1 (COX-1)): not active
in vivo anti-inflammatory activity [2]: reported to have in vivo anti-inflammatory activity

Compound: O=c1c(-c2ccc(O)cc2)coc2cc(O)ccc12 [daidzein]
IC50 (PGHS-1 (COX-1)): 400 µM

Compound: O=c1c(O)c(-c2ccc(O)c(O)c2)oc2cc(O)cc(O)c12 [quercetin]
PGHS-1 (COX-1) inhibition (PGHS-1 (COX-1)): not active
IC50 (PGHS-1 (COX-1); [3]): 350 µM

Compound: O=c1cc(-c2ccccc2)oc2ccccc12 [unsubstituted flavone, flavone]
COX inhibition (cyclooxygenase): good COX inhibitor

Compound: O=c1c(O)c(-c2ccccc2)oc2cc(O)cc(O)c12 [galangin]
IC50 (cyclooxygenase; Wurm et al. 1982, read-out: IC50 cyclooxygenase inhibition): 5.5 µM
